Assays:
[1] = test system: phospho-STAT5; experiment: Induction of pSTAT5 in CrGFR expressing T-cells; assay type: cell-based, human; conditions: CrGFR expressing T-cells from 4 donors treated for four hours
Procedure: FIG. 15—Induction of pSTAT by chimeric recombinant growth factor receptors. Primary human T-cells were isolated and transduced with the indicated CrGFR. Cells were enriched for CrGFR expression using Miltenyi MACS technology and expanded via polyclonal stimulation. The enriched cells were stimulated for 4 h with either media alone (RPMI), IL2, IL12, Tpo or Eltrombopag (Elt) before methanol fixation and intracellular staining with antibodies towards phospho-STAT5.
Finally, Applicants validated the signalling potential of the novel CrGFR by conducting phospho STAT analysis upon treatment of CrGFR expressing T-cells with media, cytokine or drug. To this end T-cells from 4 donors were transduced with either the wt TpoR, TpoR. CD40 or TpoR.IL2rγ, enriched for CrGFR expression using paramagnetic bead selection protocols and then expanded using polyclonal stimulation. The cells were treated for four hours with media alone (RPMI), IL-2, Tpo or Eltrombopag (Elt) before methanol fixation, permeabilization and analysis using pSTAT specific antibodies. STAT molecules are the key drivers of cell signalling upon cytokine activation of cells, pSTAT5 in particular is key to IL-2 activity.

[2] = test system: primary human T-cells; experiment: Eltrombopag and IL-2 on CrGFR sorted (CD110+) primary human T-cells, up to 7 days; assay type: cell-based; conditions: second donor (FIG. 12)
Procedure: (§1) FIG. 10—Analysis of Eltrombopag and IL-2 on CrGFR sorted primary human T-cells from Donor 4. Primary human T-cells from donor 4 were transduced with the WT TpoR or variant CrGFR, and enriched for expression by Miltenyi MACS technology selected for and incubated in the presence of IL2 or Eltrombopag. Cells were removed at time points up to 7 days and the number of cells expressing the receptor assessed using PE conjugated anti-CD110 antibodies, DRAQ7 viability dye and a MACSQuant analyser.
as §1, with “11—Analysis” for “10—Analysis”, “5.” for “4.”, “5” for “4”
as §1, with “12—Analysis” for “10—Analysis”, “6.” for “4.”, “6” for “4”
Paramagnetic bead sorts were conducted as per the manufacturers' instructions using either anti-PE microbeads (Miltenyi Biotec or StemCell Technologies), or T-cell isolation beads (17951: StemCell Technologies).
Next Applicants repeated the experiment but sorted the CrGFR+ cells using CD110+ selection by paramagnetic bead selection using the receptors identified from the first round of selections (FIGS. 10, 11 and 12). Applicants observed enhanced survival of T-cells engrafted with the majority of the CrGFR in all three donors. In particular Applicants saw expansion of WT-TpoR, TpOR.CD40, TpOR.IL2rγ and TpoR.LMP1-cyto cells in the second donor (FIG. 12) above that with media alone.

[3] = test system: primary human T-cells; experiment: Eltrombopag and IL-2 on CrGFR transduced primary human T-cells, up to 21 days; assay type: cell-based; conditions: after 21 days, x3 donors, Eltrombopag
Procedure: (§2) FIGS. 6A-6B—Analysis of Eltrombopag and IL-2 on primary human T-cells from Donor 1. Primary human T-cells from donor 1 were transduced with the WT TpoR or variant CrGFR and incubated in the presence of IL2 or Eltrombopag. Cells were removed at time points up to 21 days and the proportion of cells expressing the receptor assessed using PE conjugated anti-CD110 antibodies and a MACSQuant analyser.
as §2, with “FIGS. 7A-7B—Analysis” for “FIGS. 6A-6B—Analysis”, “Donor 2.” for “Donor 1.”, “donor 2” for “donor 1”
as §2, with “FIGS. 8A-8B—Analysis” for “FIGS. 6A-6B—Analysis”, “Donor 3.” for “Donor 1.”, “donor 3” for “donor 1”
FIGS. 9A-9B—Selection of optimal CrGFRs for next round of analysis. Flow cytometry plots showing expression of CrGFRs in ×3 donor primary human T-cells after 21 days incubation in Eltrombopag. The receptors TpoR.CD40, TpoR.IL2rγ, TpoR.ITAM1, TpoR.A60, TpoR.LMP1-cyto and TpoR.TpoR-cyto.LMP1-cyto were chosen for future comparison with the wt TpoR.
Peripheral blood mononuclear cells were isolated from normal healthy donors before activation for 24 hours with T-cell activation and expansion beads (Invitrogen) according to the manufacturer's instructions before addition of lentiviral supernatants.
Following expansion cells were washed excessively to remove any exogenous IL2 and plated into 96-well U-bottom plates. Cells were supplemented with IL2 (Proleukin) or Eltrombopag (Stratech Scientific, Suffolk, UK). At various time points thereafter cells were either stained with a 1:400 dilution of eFlor-450 fixable viability dye (eBioscience, UK) and counted directly from the wells using a MACSQuant Cytometer, or were stained with DRAQ7 viability dye plus phycoerythrin conjugated anti-CD110 antibodies (Miltenyi Biotec, UK) and analysed using a MACSQuant cytomter. Cell viability and/or transduction level was then analysed using MACSQuantify software (Miltenyi Biotec, UK).
Next Applicants took these receptors and expressed them in primary human T-cells and exposed these cells to IL-2 or Eltrombopag. Three donor primary human T-cell populations were isolated from buffy coats and transduced with the indicated lentiviral constructs in the presence of CD3/CD28 Dynabeads. Following expansion the cells were incubated with IL-2 or Eltrombopag. Applicants saw an increase in expansion/survival of T-cells with some of the receptors in some of the donors. […] This narrowed Applicants' panel of receptors to analyse further to: TpoR.CD40, TpOR.IL2rγ, TpoR.ITAM1, TpOR.LMP1-cyt, and TpoR.TpoR-cyt-LMP1-cyt.

Molecule: Tpo: thrombopoietin (Tpo), native ligand of TpoR
- induction of pSTAT5 by cytokine or drug [1]: showed induction of STAT5 activity

Molecule: TpoR.LMP1-cyt: SEQ ID NO: 12; TpoR EC and TM domain fused to LMP-1 cytoplasmic domain
- expansion of CrGFR cells above that with media alone [2]: expansion
- proportion of viable cells with a distinct population of CD110+ cells [3]: good proportion of viable cells with a distinct population of CD110+ cells

Molecule: TpoR.TpoR-cyt-LMP1-cyt: SEQ ID NO: 11; TpoR with TpoR cytoplasmic domain fused to LMP-1 cytoplasmic domain
- proportion of viable cells with a distinct population of CD110+ cells [3]: good proportion of viable cells with a distinct population of CD110+ cells

B1: TpoR.Δ60: SEQ ID NO: 2; TpoR with C-terminal truncation of the cytoplasmic domain (protein)
chain: MPSWALFMVTSCLLLAPQNLAQVSSQDVSLLASDSEPLKCFSRTFEDLTCFWDEEEAAPSGTYQLLYAYPREKPRACPLSSQSMPHFGTRYVCQFPDQEEVRLFFPLHLWVKNVFLNQTRTQRVLFVDSVGLPAPPSIIKAMGGSQPGELQISWEEPAPEISDFLRYELRYGPRDPKNSTGPTVIQLIATETCCPALQRPHSASALDQSPCAQPTMPWQDGPKQTSPSREASALTAEGGSCLISGLQPGNSYWLQLRSEPDGISLGGSWGSWSLPVTVDLPGDAVALGLQCFTLDLKNVTCQWQQQDHASSQGFFYHSRARCCPRDRYPIWENCEEEEKTNPGLQTPQFSRCHFKSRNDSIIHILVEVTTAPGTVHSYLGSPFWIHQAVRLPTPNLHWREISSGHLELEWQHPSSWAAQETCYQLRYTGEGHQDWKVLEPPLGARGGTLELRPRSRYRLQLRARLNGPTYQGPWSSWSDPTRVETATETAWISLVTALHLVLGLSAVLGLLLLRWQFPAHYRRLRHALWPSLPDLHRVLGQYLRDTAALSPPKATVSDTCEEVEPSLLEILPKSSERTPL
modifications: TpoR.delta60; MISC_FEATURE (1)..(491): TpoR Extracellular Domain; MISC_FEATURE (492)..(513): TpoR Transmembrane Domain; MISC_FEATURE (514)..(580): TpoR Cytoplasmic Domain with C-terminal Truncation
- proportion of viable cells with a distinct population of CD110+ cells [3]: looked good

B2: IL-12: IL-12 as a control (protein, UniProt P29459 23-219; P29460 23-328, looked up)
Interleukin-12 subunit alpha: RNLPVATPDPGMFPCLHHSQNLLRAVSNMLQKARQTLEFYPCTSEEIDHEDITKDKTSTVEACLPLELTKNESCLNSRETSFITNGSCLASRKTSFMMALCLSSIYEDLKMYQVEFKTMNAKLLMDPKRQIFLDQNMLAVIDELMQALNFNSETVPQKSSLEEPDFYKTKIKLCILLHAFRIRAVTIDRVMSYLNAS
Interleukin-12 subunit beta: IWELKKDVYVVELDWYPDAPGEMVVLTCDTPEEDGITWTLDQSSEVLGSGKTLTIQVKEFGDAGQYTCHKGGEVLSHSLLLLHKKEDGIWSTDILKDQKEPKNKTFLRCEAKNYSGRFTCWWLTTISTDLTFSVKSSRGSSDPQGVTCGAATLSAERVRGDNKEYEYSVECQEDSACPAAEESLPIEVMVDAVHKLKYENYTSSFFIRDIIKPDPPKNLQLKPLKNSRQVEVSWEYPDTWSTPHSYFSLTFCVQVQGKSKREKKDRVFTDKTSATVICRKNASISVRAQDRYYSSSWSEWASVPCS
- induction of pSTAT5 by cytokine or drug [1]: unable to induce STAT5 activation

B3: TpoR.ITAM1: SEQ ID NO: 10; TpoR fused to ITAM1 cytoplasmic domain (protein)
chain: MPSWALFMVTSCLLLAPQNLAQVSSQDVSLLASDSEPLKCFSRTFEDLTCFWDEEEAAPSGTYQLLYAYPREKPRACPLSSQSMPHFGTRYVCQFPDQEEVRLFFPLHLWVKNVFLNQTRTQRVLFVDSVGLPAPPSIIKAMGGSQPGELQISWEEPAPEISDFLRYELRYGPRDPKNSTGPTVIQLIATETCCPALQRPHSASALDQSPCAQPTMPWQDGPKQTSPSREASALTAEGGSCLISGLQPGNSYWLQLRSEPDGISLGGSWGSWSLPVTVDLPGDAVALGLQCFTLDLKNVTCQWQQQDHASSQGFFYHSRARCCPRDRYPIWENCEEEEKTNPGLQTPQFSRCHFKSRNDSIIHILVEVTTAPGTVHSYLGSPFWIHQAVRLPTPNLHWREISSGHLELEWQHPSSWAAQETCYQLRYTGEGHQDWKVLEPPLGARGGTLELRPRSRYRLQLRARLNGPTYQGPWSSWSDPTRVETATETAWISLVTALHLVLGLSAVLGLLLLRWQFPAHYRRLRHALWPSLPDLHRVLGQYLRDTAALSPPKATVSDTCEEVEPSLLEILPKSSERTPLPLCSSQAQMDYRRLQPSCLGTMPLSVCPPMAESGSCCTTHIANHSYLPLSYWQQPRVKFSRSADAPAYQQGQNQLYNELNLGRREEYDVLDKRRGR
modifications: TpoR-ITAM1; MISC_FEATURE (1)..(491): TpoR Extracellular Domain; MISC_FEATURE (492)..(513): TpoR Transmembrane Domain; MISC_FEATURE (514)..(635): TpoR Cytoplasmic Domain; MISC_FEATURE (636)..(676): ITAM1 Cytoplasmic Domain
- proportion of viable cells with a distinct population of CD110+ cells [3]: good proportion of viable cells with a distinct population of CD110+ cells

From patent US20210205365A1, “Chimeric Growth Factor Receptors” (Instil Bio (UK) Ltd., priority 2018, published 2021)
